Test results as given in ChEMBL document CHEMBL1201862, “PubChem BioAssay data set” (2004).
The source made the active and inactive calls.

How the values were obtained:
Genome polyprotein = Genome polyprotein (dengue virus type 2, UniProt P29990); experiment: Dengue-2 NS5 methyltransferase inhibitors, primary screen, biochemical, confirmation dose response (AID 588689); format: functional
Protein RecA = target: T1, Protein RecA (Mycobacterium tuberculosis, UniProt P9WHJ3); experiment: Fluorescence Cell-Free Homogeneous Dose Retest to Identify Inhibitors of RecA-Intein Splicing Activity. [Related pubchem assays (depositor defined):AID2097, AID2223, AID489010, AID492950]; format: functional
T1 sequence (P9WHJ3 whole entry): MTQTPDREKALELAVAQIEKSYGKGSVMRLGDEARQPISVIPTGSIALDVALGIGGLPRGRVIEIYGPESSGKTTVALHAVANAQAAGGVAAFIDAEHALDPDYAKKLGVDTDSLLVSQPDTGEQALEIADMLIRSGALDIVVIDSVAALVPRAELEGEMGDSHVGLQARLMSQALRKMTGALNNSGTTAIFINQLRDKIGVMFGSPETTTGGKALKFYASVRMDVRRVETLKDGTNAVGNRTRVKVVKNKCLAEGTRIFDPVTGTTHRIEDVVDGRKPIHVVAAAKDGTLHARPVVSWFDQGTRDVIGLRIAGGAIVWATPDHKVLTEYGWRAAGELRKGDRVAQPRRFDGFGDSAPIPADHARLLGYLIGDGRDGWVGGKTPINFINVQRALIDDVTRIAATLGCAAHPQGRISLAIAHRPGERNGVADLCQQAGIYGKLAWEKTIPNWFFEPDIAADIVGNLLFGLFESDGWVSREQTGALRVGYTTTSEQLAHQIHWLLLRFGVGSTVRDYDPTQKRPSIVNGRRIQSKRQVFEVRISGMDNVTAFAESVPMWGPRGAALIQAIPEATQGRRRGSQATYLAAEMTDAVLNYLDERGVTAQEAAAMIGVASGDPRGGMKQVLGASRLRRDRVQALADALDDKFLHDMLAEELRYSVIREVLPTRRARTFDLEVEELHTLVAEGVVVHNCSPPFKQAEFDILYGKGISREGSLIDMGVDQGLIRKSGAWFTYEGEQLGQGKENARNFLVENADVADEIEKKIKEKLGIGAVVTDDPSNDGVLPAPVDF

[1] = target: T2, Replicative DNA helicase DnaB (Mycobacterium tuberculosis, UniProt P9WMR3); experiment: DnaB intein splicing inhibitors, dose response, biochemical, cell-free fluorescence (AID 449749); format: functional
T2 sequence (P9WMR3 whole entry): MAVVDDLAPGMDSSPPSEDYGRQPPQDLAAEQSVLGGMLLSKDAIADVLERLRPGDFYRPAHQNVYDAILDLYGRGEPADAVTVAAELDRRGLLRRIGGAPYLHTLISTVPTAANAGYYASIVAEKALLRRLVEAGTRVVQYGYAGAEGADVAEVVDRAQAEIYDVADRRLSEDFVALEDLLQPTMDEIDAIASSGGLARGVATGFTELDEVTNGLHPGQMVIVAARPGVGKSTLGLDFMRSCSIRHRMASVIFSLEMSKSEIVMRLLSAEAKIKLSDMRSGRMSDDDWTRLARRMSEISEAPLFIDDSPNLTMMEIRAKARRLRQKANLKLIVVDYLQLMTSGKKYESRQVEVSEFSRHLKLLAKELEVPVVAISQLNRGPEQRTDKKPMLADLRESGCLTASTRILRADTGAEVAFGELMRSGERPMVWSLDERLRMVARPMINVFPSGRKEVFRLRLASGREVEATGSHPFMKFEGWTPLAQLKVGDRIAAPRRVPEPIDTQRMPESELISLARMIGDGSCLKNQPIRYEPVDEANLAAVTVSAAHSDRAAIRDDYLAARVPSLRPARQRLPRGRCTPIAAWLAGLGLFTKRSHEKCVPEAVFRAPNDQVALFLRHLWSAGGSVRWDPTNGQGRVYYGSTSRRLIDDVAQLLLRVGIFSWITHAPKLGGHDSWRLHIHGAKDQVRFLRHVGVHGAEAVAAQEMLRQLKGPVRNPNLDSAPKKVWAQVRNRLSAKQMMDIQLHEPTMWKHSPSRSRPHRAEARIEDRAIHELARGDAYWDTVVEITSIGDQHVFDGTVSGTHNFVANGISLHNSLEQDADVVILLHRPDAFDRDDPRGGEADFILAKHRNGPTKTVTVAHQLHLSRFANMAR

[2] = system: Streptococcus sp. 'group A'; experiment: growth inhibition of control SK(-) GAS strain, dose response, counter-screen for streptokinase expression inhibitor project, luminescence, kanamycin, BacTiterGlo, confirmation (AID 1900); format: functional, organism-based
Aminopeptidase N = target: T3, Aminopeptidase N (Plasmodium falciparum FcB1/Columbia, UniProt O96935); experiment: P. falciparum M1AAP inhibitors, biochemical, fluorogenic H-Leu-NHMec substrate, 1536-well (AID 1445); set-up: species or system Plasmodium falciparum 3D7, 3D7
T3 sequence (O96935 whole entry): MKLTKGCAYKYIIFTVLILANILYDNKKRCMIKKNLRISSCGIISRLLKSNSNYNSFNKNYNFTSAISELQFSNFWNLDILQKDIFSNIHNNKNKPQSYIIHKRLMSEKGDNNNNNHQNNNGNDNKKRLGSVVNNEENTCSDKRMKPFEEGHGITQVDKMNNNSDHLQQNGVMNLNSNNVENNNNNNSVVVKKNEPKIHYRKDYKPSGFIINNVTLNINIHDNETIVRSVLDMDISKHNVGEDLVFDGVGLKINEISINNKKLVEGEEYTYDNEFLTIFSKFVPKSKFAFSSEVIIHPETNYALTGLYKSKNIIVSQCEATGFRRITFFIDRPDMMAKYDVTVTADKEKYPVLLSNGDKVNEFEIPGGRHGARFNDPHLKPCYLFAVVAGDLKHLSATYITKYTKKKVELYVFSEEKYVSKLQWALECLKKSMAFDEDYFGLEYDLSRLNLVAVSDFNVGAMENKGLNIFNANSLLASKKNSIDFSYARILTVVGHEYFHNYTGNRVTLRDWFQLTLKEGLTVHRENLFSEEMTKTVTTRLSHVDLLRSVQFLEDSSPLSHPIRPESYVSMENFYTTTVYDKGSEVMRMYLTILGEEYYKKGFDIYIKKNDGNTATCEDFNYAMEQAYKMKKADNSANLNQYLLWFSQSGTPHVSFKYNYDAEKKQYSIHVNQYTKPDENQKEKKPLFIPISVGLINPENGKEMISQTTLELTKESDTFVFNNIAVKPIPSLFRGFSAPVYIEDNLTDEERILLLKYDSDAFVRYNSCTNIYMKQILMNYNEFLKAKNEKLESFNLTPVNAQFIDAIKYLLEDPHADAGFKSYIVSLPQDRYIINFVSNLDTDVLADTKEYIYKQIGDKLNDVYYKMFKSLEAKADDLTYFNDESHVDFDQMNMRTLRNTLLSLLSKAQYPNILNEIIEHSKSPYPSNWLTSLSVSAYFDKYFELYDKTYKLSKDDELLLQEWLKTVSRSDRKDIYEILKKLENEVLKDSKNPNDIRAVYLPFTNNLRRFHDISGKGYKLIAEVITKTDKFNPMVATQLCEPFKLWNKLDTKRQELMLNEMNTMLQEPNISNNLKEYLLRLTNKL

Streptokinase A = target: T4, Streptokinase A (Streptococcus pyogenes serotype M1, UniProt P10520); experiment: S. pyogenes streptokinase expression inhibitors, potency, dose response, plasminogen activation absorbance, OD405 (AID 1914); format: functional, Streptococcus pyogenes M1 GAS;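 note: secreted streptokinase activity via plasminogen activation per viability signal from cell pellet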
T4 sequence (P10520 whole entry): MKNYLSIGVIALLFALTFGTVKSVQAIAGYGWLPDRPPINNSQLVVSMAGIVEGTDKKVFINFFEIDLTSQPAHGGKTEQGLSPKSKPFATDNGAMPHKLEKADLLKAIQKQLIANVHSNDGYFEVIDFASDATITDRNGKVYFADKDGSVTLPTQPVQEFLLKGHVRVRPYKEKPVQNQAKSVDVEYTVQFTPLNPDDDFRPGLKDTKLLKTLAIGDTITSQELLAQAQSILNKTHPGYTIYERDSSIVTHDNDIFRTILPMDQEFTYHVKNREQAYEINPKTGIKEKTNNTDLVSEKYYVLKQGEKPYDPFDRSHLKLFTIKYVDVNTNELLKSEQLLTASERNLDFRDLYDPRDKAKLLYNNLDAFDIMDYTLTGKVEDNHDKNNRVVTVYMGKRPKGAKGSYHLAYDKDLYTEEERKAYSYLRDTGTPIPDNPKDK

[3] = HIV-1 Env-mediated cell fusion inhibitors, dose response, CCR5-tropic Env (AID 2279); format: functional
Streptococcus = experiment: Group A Streptococcus viability loss, dose response, counter-screen for streptokinase expression inhibitor project, luminescence, BacTiterGlo (AID 1915); format: functional, organism-based;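 note: potency for reduction of bacterial viability or growth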
[4] = HepG2 cell cytotoxicity, dose response, cytotoxicity control, plate reader, cherry-pick, antagonist series (AID 743416); format: functional, cell-based
Paired box protein Pax-8 = Paired box protein Pax-8 (Homo sapiens, UniProt Q06710); experiment: inhibitors of PAX8-driven TPO luciferase reporter, dose response, RMG-I cells, cherry-pick (AID 687027); format: functional, cell-based;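 note: luciferase reporter driven by Pax8 target thyroperoxidase promoter measured by SteadyGlo luminescence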
[5] = A Cell Based Secondary Assay To Explore Cytotoxicity of Compounds that Sensitize Mycobacterium Tuberculosis to Beta-Lactam Antibiotics.; format: functional
[6] = target: T5, Microphthalmia-associated transcription factor (Homo sapiens, UniProt O75030); experiment: TRPM1 promoter luciferase signal decrease, dose response, MITF inhibitor project, cell-based, SK-MEL-5, cherry-picked, set 3 (AID 493073); format: functional
T5 sequence (O75030 whole entry): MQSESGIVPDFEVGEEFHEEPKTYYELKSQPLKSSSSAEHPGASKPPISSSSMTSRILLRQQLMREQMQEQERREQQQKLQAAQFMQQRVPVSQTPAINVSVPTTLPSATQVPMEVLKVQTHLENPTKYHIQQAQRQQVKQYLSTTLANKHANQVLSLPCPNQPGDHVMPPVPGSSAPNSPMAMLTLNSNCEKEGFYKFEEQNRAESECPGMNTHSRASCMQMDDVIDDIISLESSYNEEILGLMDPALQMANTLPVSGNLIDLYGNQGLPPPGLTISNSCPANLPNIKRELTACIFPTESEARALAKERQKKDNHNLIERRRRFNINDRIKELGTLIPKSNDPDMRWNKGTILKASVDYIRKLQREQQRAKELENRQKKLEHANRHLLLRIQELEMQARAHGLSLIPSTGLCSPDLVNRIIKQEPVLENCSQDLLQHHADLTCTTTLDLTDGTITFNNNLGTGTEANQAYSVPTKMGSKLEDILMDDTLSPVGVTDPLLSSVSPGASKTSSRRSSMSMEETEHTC

[7] = HEK293 cell cytotoxicity, dose response, cytotoxicity control, plate reader, cherry-picked samples (AID 743446); format: functional, cell-based
[8] = MC4R antagonists, dose response, counter-screen for LGR2 antagonist project, cell-based, plate reader, cherry pick (AID 743444); format: functional;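 note: transfected HEK 293 cells stimulated with alpha-MSH peptide; potency of inhibitors of the alpha-MSH evoked signal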
[9] = LGR2 antagonists, dose response, cell-based, HEK293, CRE-luciferase reporter, cherry pick, set 2 (AID 743343); format: functional;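 note: transfected cells were stimulated with diluted bursicon conditioned medium after compound addition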
[10] = A549 cell cytotoxicity, dose response, cytotoxicity control, plate reader, cherry-pick, antagonist series (AID 743412); format: functional, cell-based
[11] = inhibitors of intracellular T. cruzi replication, confirmation, NIH3T3 host cells, beta-gal luminescence (AID 2044); format: functional, cell-based;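 note: intracellular parasites grown in NIH/3T3 mouse fibroblasts as host cells; luminescent beta-galactosidase reporter signal from transgenic T. cruzi replicating inside host cells; inhibitors lower the luminescence signal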
INS1 = experiment: beta cell apoptosis inhibitors, cytokine rescue, dose response, luminescence, retest (AID 449756); format: functional, cell-based; settings: Rattus norvegicus;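 note: cell death triggered by IL-1 beta plus TNF-alpha plus IFN-gamma mixture; protective hits raise ATP signal compared with cytokine alone wells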
[12] = target: Serine/threonine-protein phosphatase PP1-alpha catalytic subunit (Homo sapiens, UniProt P62136); experiment: PP1 phosphatase inhibitors, dose response, biochemical, fluorescence (AID 2403);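 note: phosphatase turnover of OMFP into fluorescent 3-O-methylfluorescein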
[13] = cytotoxicity toward NIH3T3 fibroblasts, dose response, counter-screen, cell-based, ATP luminescence, mouse fibroblasts (AID 2010); format: functional;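 note: cells exposed to compound for about 90 hours before reading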
[14] = target: Serine/threonine-protein phosphatase (Homo sapiens, UniProt Q9BPW0); experiment: Counterscreen for inhibitors of PP1: fluorescence-based biochemical high throughput dose response assay to identify inhibitors of Protein Phosphatase 5 (PP5). [Related pubchem assays: 2034 (Summary (PP5 inhibitors)), 1987 (PP5 inhibitors in singlate), 2235 (PP1 inhibitors in singlate)]
Serine/threonine-protein phosphatase, sequence (Q9BPW0 whole entry): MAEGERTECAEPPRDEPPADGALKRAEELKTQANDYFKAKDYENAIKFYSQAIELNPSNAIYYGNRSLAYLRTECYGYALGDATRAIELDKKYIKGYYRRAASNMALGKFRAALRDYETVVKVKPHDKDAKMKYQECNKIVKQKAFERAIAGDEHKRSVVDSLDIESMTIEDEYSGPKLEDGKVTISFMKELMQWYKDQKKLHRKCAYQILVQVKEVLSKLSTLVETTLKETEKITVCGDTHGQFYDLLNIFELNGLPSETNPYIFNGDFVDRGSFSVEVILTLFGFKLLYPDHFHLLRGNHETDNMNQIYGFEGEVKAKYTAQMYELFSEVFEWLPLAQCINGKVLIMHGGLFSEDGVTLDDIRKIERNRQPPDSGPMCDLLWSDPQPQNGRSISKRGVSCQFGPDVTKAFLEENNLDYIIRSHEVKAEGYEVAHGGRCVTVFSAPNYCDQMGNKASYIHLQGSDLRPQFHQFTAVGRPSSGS

Genome polyprotein, sequence (P29990 2492-3391 limits assumed): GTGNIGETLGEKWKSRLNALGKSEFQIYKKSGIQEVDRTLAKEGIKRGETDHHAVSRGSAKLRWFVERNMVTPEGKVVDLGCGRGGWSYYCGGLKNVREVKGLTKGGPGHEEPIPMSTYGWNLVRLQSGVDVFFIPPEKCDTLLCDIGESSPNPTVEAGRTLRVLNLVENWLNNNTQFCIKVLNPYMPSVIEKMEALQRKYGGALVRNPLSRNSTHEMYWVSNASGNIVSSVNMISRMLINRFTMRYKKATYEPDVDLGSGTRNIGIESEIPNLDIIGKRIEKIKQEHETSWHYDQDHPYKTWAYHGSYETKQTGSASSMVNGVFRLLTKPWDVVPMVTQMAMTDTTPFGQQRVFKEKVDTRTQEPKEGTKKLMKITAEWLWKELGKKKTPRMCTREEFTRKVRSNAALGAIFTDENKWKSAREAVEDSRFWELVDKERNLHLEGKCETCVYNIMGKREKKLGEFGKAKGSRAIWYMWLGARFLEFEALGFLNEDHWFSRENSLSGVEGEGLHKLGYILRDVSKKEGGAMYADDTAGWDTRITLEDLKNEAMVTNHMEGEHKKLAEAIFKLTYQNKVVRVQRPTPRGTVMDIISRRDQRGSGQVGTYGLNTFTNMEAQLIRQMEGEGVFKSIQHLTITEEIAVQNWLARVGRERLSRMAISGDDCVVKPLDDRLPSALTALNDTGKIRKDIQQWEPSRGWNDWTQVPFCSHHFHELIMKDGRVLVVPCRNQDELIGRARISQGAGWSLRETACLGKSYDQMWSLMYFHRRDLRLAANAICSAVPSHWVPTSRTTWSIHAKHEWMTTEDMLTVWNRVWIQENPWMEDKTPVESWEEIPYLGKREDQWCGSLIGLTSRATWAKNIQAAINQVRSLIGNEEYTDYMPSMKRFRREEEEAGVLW
Paired box protein Pax-8, sequence (Q06710 whole entry): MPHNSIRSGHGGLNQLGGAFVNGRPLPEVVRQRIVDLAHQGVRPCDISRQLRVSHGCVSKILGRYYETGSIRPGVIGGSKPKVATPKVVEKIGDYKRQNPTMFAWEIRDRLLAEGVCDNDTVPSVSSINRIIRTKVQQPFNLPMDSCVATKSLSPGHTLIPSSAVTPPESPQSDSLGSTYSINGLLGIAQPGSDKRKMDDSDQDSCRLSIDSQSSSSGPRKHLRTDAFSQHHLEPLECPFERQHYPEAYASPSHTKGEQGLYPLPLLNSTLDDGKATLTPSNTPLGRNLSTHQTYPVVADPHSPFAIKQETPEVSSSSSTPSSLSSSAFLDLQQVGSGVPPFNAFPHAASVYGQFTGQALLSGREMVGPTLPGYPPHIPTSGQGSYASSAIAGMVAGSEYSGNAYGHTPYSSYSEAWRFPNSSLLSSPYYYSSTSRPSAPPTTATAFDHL
Serine/threonine-protein phosphatase PP1-alpha catalytic subunit, sequence (P62136 whole entry): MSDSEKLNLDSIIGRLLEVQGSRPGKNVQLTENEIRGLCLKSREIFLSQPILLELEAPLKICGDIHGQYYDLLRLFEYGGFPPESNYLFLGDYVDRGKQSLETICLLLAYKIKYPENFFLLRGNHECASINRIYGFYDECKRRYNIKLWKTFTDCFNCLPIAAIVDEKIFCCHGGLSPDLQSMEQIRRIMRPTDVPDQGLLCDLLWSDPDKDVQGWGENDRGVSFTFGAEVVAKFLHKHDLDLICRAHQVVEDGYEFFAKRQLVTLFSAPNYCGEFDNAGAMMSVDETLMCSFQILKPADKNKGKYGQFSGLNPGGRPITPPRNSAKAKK

With `O=C(O)c1ccccc1-c1ccccc1C(=O)Nc1ccc(-c2nc3cc(Cl)ccc3o2)cc1` the IC50 (Genome polyprotein) was 54 µM (active), the EC50 (Protein RecA) was 11.7 µM (active) and the AC50 [1] was 3.18 µM (active). The EC50 [2] was 7.55 µM (active), the IC50 (Aminopeptidase N) was 32.6 µM (active) and the EC50 (Streptokinase A) was > 150 µM (not active). The IC50 [3] was > 50 µM (active) and the EC50 (Streptococcus) was 14 µM (active).

With `Cn1nnnc1Sc1ncnc2scc(-c3cccc(F)c3)c12` the AC50 [4] was 6.73 µM (active), the AC50 (Paired box protein Pax-8) was 2.64 µM (active) and the CC50 [5] was 17.6 µM (active). For the same compound, the AC50 [6] was 5.98 µM (active), the AC50 [7] was 6.26 µM (active) and the AC50 [8] was 12 µM (active). The AC50 [9] was 6.24 µM (active) and the AC50 [10] was 7.53 µM (active).

With `COc1ccc(Sc2nc(-c3ccccn3)ncc2OC)cc1` the EC50 [11] was 1.9 µM (active), the AC50 (INS1) was 5.13 µM (active) and the IC50 [12] was 6.04 µM (active). The EC50 [13] was > 60 µM (inconclusive) and the IC50 [14] was > 67 µM (not active).
